Experimental data reported in patent EP2681209B1, “COMPOUNDS AND METHODS FOR THE TREATMENT OF PAIN AND OTHER DISORDERS” (Aquilus Pharmaceuticals, Inc, priority 2011, dated 2012).

Legend:
[1] = test system: FVB male mice; assay: Spinal nerve ligation (SNL) mouse model of neuropathic pain, intrathecal administration, von Frey tactile allodynia test; assay type: in vivo; details: for 50% paw withdrawal threshold, Mean, Day 0 Postoperative Baseline: group baseline after SNL injury, before first injection; for 50% paw withdrawal threshold, Mean, Day 0 Postoperative Baseline / 50% paw withdrawal threshold, Mean, Day(-2) Pre-operative Baseline: von Frey; for 50% paw withdrawal threshold, Mean, Day(-2) Pre-operative Baseline: group baseline prior to SNL injury and before any treatment; for 50% paw withdrawal threshold, Mean, Day 5 / 50% paw withdrawal threshold, Mean, Day 7 / 50% paw withdrawal threshold, Mean, Day 1: i.t. 10 µl/mouse daily injections day 1-6; for 50% paw withdrawal threshold, Mean, Day 1: testing 2hr after first i.t. injection
Source text: To measure the neuropathic pain inhibiting affects of the MMP inhibitors of the present invention, the spinal nerve ligation (SNL) mouse model was run on a select number of compounds. This model which began with the work of Bennet and coworkers (Bennet, G.J. et al. Pain, 33, (1988), 87-107) and was optimized by Kim and Chung (Kim, S.H.; Chung, J.M. Pain, 50, (1992), 355-363) entails first, under magnification, the removal of one-third of the transverse process and then identifying and then dissecting free the L5 spinal nerve from the adjacent L4 spinal nerve in the mouse. The L5 spinal nerve is then tightly ligated using 6.0 silk suture. The nerve injury leads to hyperalgesia which manifests itself by enhanced responses to mechanical, heat and/or cooling stimuli. In this case, mechanical hyperalgesia is tested via Von Frey monofilaments in which filaments of varying thicknesses and bending force are individually applied to the plantar surface of the foot of the mouse. The threshold force necessary for paw withdrawal decreases dramatically after the nerve surgery. Potent pain inhibitors will reverse this affect resulting in greater force needing to be applied to cause the rodent paw to withdrawal.
Following preoperative baseline (Day -2) paw threshold measurement, FVB male mice were subjected to SNL injury (Day -1). The next day (Day 0) after SNL surgery, the animals were tested for post-operative baseline threshold measurements for mechanical allodynia; and the animals were then randomly assigned to one of 3 treatment groups (see Table 3). Over the course of the study, paw withdrawal threshold of these animals was measured in response to mechanical stimulation using the von Frey Monofilament Test.
To avoid systemic effects of the MMP inhibitors, the MMP inhibitors of the present invention were delivered into the cerebral spinal fluid (CSF) space around lumbosacral spinal cord via intrathecal (i.t.) administration, with the idea of targeting MMPs in the DRG, spinal cord, and spinal CSF. Intrathecal MMP inhibitor administration could then target not only spinal cord cells but also DRG cells. Each intrathecal (i.t.) injection was carried out according to the technique of Hylden and Wilcox (Hylden JL, Wilcox GL. Eur. J Pharmacol., 67, (1980), 313-6) 5.2 mg of each of the MMP inhibitors were first dissolved in 140 microliters of DMSO and then put into 1260 microliters of 0.5% hydroxypropyl cellulose (HPC) in water to make a fine suspension composed of compound in 10%DMSO-0.5% hydroxypropyl cellulose. 10 microliters of the mixture was injected into the intrathecal space of male FVB mice (weighing 22-25 grams each and obtained from the Jackson Laboratories, Bar Harbor, Me), by lumbar puncture in a volume of 10 µl/mouse using a Hamilton microsyringe via a 30 gauge needle inserted between lumbar vertebrae 5 and 6. In brief, each animal was held firmly by the pelvic girdle in one hand, while the needle was inserted into the tissue on the right side of the L5 or L6 spinous process. The needle was moved forward and slipped into the groove between the spinous process and transverse process and gently moved forward to the intervertebral space at ∼10° angle. As the needle was inserted (∼0.5 cm) within the vertebral column a tail flick was evident, and the solution was then injected. Table 3. Animal i.t. Treatment Groups & Compounds Tested
Tactile Allodynia Test. Mechanical allodynia was measured using the calibrated von Frey filaments (Semmes-Weinstein monofilaments; Stoelting, Wood Dale, IL, U.S.A.). The plantar surface of the left injured paw of each animal was tested as described by Chaplan et al. (Journal of Neuroscience Methods, 53, (1994), 55-63). […]

[2] = In-vitro microsomal stability in mouse microsomes; assay type: in vitro ADME; details: 1 µM compound, mouse microsomes 0.3 mg/mL, at T = 60 minutes; for %Mean Remaining Parent without NADPH (%): control omitting NADPH
Procedure: Human and mouse microsomal stability was determined for select compounds following the method of Houston (Houston, JB; Biochem. Pharmacol. 47, (1994),1469).
1 µM concentration of compound and seperate human and mouse microsomes (0.3 mg/mL, BD bioscience) were used in the in-vitro assay. To ensure proper energy supply for microsomal degradation of compound, an energy regenerating system comprised of 100 mM potassium phosphate, 2mM NADPH, 3mM MgCl2, pH = 7.4. and the microsomal protein is added to each sample and the resulting suspension is then incubated in duplicate for 60 min at 37° C. in a rotary shaker. A control is run for each test agent in duplicate omitting NADPH to detect NADPH-free degradation. At T=0 and T= 60 min., an aliquot is removed from each experimental and control reaction and then mixed with an equal volume of ice-cold Stop Solution (consisting of 0.3% acetic acid in acetonitrile containing haloperidol and diclofenac as internal standards). Stopped reactions are then incubated for at least ten minutes at -20 °C, and an additional volume of water is then be added. The samples are then centrifuged to remove precipitated protein, and the supernatants are then analyzed by LC-MS/MS to determine the percentage of compound remaining. The LC-MS/MS system used was an Agilent 6410 mass spectrometer coupled with an Agilent 1200 HPLC and a CTC PAL chilled autosampler, all controlled by MassHunter software (Agilent), or an ABI2000 mass spectrometer coupled with an Agilent 1100 HPLC and a CTC PAL chilled autosampler, all controlled by Analyst software (ABI). After separation on a C18 reverse phase HPLC column (Agilent, Waters, or equivalent) using an acetonitrile-water gradient system, peaks were analyzed by mass spectrometry (MS) using ESI ionization in MRM mode.

Row | Compound | 50% paw withdrawal threshold, Mean, Day 0 Postoperative Baseline [1] [g] | 50% paw withdrawal threshold, Mean, Day(-2) Pre-operative Baseline [1] [g] | 50% paw withdrawal threshold, Mean, Day 5 [1] [g] | 50% paw withdrawal threshold, Mean, Day 7 [1] [g] | 50% paw withdrawal threshold, Mean, Day 1 [1] [g] | %Mean Remaining Parent with NADPH (%) [2] [%] | %Mean Remaining Parent without NADPH (%) [2] [%] | reversal of allodynia ([1]; i.t. administration, as compared to vehicle and compound #5)
1 | Cc1ccc(C#Cc2ccc(S(=O)(=O)N[C@H](Cc3c[nH]c4ccccc34)C(=O)O)s2)cc1 [Compound 5, (R)-3-(1H-Indol-3-yl)-2-(5-p-tolylethynyl-thiophene-2-sulfonylamino)-propionic acid] | 0.050 | 1.265 | 0.079 | 0.190 | 0.098 | 83 | 88 | 
2 | [2H]C([2H])([2H])c1ccc(C#Cc2ccc(S(=O)(=O)N[C@H](Cc3c[nH]c4ccccc34)C(=O)O)s2)cc1 [Compound 10, (R)-3-(1H-Indol-3-yl)-2-[5-(4-trideuteromethyl-phenylethynyl)-thiophene-2-sulfonylamino]-propionic acid-(D3, 98%)] | 0.077 | 1.268 | 0.320 | 1.024 | 0.321 | 85 | 91 | almost complete reversal of allodynia
